From patent US20190231751A1, “TREATMENT OF FIBROTIC DISORDERS WITH JUN N-TERMINAL KINASE INHIBITORS” (Imago Pharmaceuticals, Inc., priority 2016, published 2019) come the findings set out here.

Format in all cases: biochemical
The target of one assay is JNK3 (Homo sapiens, UniProt P53779). The assay is described as follows: In vitro JNK3 inhibition (Table 1). How it is done: (§1) In vitro assays for the determination of JNK activities are known in the art and exemplary assay formats are described herein.
(§2) IC50 values in Table 1 were determined using the procedures as described in U.S. Pat. No. 8,450,353.

A further assay deals with JNK1 (Homo sapiens, UniProt P45983). The experiment in a line: In vitro JNK1 inhibition (Table 1). The protocol: as §1, §2
The next assay concerns the target JNK2 (Homo sapiens, UniProt P45984). The experiment in a line: In vitro JNK2 inhibition (Table 1). The protocol:
as §1, §2

JNK3, sequence (P53779 whole entry, species assumed): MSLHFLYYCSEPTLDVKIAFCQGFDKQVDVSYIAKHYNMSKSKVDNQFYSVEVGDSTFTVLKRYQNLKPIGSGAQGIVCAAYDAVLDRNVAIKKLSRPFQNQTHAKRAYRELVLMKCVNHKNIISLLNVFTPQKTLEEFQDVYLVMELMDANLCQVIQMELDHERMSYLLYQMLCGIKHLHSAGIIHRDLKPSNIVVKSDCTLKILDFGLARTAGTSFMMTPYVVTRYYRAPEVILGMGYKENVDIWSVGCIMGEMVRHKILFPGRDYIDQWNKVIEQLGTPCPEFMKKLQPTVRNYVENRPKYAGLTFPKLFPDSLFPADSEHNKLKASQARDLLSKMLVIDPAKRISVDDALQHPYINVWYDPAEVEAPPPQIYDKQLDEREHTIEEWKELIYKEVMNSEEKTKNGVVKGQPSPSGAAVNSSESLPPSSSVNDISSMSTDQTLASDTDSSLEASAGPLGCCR
JNK1, sequence (P45983 whole entry, species assumed): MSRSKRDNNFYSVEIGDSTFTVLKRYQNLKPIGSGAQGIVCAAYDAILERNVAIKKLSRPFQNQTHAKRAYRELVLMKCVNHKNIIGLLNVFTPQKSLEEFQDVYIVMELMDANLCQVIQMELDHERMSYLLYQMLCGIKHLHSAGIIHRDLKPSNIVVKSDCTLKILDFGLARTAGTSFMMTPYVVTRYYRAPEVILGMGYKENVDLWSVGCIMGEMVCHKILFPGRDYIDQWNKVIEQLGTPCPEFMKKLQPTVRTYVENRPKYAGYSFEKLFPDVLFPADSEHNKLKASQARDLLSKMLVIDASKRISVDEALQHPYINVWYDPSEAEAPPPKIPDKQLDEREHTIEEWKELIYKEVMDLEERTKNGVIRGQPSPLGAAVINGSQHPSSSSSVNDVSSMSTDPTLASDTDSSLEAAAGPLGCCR
JNK2, sequence (P45984 whole entry, species assumed): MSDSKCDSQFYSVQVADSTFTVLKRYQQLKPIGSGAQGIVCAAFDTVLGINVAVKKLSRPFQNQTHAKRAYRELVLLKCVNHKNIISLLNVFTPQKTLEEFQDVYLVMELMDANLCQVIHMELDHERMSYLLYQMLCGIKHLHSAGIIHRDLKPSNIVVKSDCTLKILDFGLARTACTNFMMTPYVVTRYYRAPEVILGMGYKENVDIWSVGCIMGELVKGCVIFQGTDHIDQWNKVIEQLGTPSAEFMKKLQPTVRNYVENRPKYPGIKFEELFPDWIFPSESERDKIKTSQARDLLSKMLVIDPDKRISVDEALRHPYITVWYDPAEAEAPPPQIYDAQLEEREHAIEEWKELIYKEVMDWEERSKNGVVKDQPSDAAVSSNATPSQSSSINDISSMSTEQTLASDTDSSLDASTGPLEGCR

What is called IC50 is the midpoint of a concentration-inhibition curve. On to `O=C(Cn1c(=O)ccc2cc(F)c(F)cc21)Nc1scc(Br)c1-c1ncn[nH]1` [N-(4-bromo-3-(1H-1,2,4-triazol-5-yl)thiophen-2-yl)-2-(6,7-difluoro-2-oxoquinolin-1(2H)-yl)acetamide], for which the IC50 against JNK3, at JNK1 and against JNK2 was under 100 nM throughout.
For `Cn1cnc(-c2c(Cl)csc2NC(=O)Cn2c(=O)ccc3cnc(C(F)(F)F)cc32)n1` [N-(4-chloro-3-(1-methyl-1H-1,2,4-triazol-3-yl)thiophen-2-yl)-2-(2-oxo-7-(trifluoromethyl)-1,6-naphthyridin-1(2H)-yl)acetamide], the IC50 against JNK3, at JNK1 and against JNK2 was under 100 nM each time.
Consider `O=C(Cn1c(=O)ccc2nc(C(F)(F)F)ccc21)Nc1scc(Br)c1-c1ncn[nH]1` [N-(4-bromo-3-(1H-1,2,4-triazol-5-yl)thiophen-2-yl)-2-(2-oxo-6-(trifluoromethyl)-1,5-naphthyridin-1(2H)-yl)acetamide], for which the IC50 against JNK3, against JNK1 and against JNK2 was under 100 nM each time.
Regarding `O=C(Cn1c(=O)ccn2nccc12)Nc1scc(Br)c1-c1ncn[nH]1` [N-(4-bromo-3-(1H-1,2,4-triazol-5-yl)thiophen-2-yl)-2-(5-oxopyrazolo[1,5-a]pyrimidin-4(5H)-yl)acetamide], the IC50 against JNK3, against JNK1 and at JNK2 was under 100 nM each time.
Consider `N#Cc1ccc2c(ccc(=O)n2CC(=O)Nc2scc(Cl)c2-c2nc[nH]n2)c1` [N-(4-chloro-3-(1H-1,2,4-triazol-3-yl)thiophen-2-yl)-2-(6-cyano-2-oxoquinolin-1(2H)-yl)acetamide], for which the IC50 against JNK3, on JNK1 and at JNK2 was under 100 nM in each case.
`O=C(CN1C(=O)CCc2ncccc21)Nc1scc(Br)c1-c1ncn[nH]1` [N-(4-bromo-3-(1H-1,2,4-triazol-5-yl)thiophen-2-yl)-2-(2-oxo-3,4-dihydro-1,5-naphthyridin-1(2H)-yl)acetamide]: the IC50 on JNK3, on JNK1 and against JNK2 was under 100 nM throughout.
Regarding `Cn1cnc(-c2c(Br)csc2NC(=O)CN2C(=O)CCc3ncccc32)n1` [N-(4-bromo-3-(1-methyl-1H-1,2,4-triazol-3-yl)thiophen-2-yl)-2-(2-oxo-3,4-dihydro-1,5-naphthyridin-1(2H)-yl)acetamide], the half-inhibitory concentration (IC50) against JNK3, on JNK1 and at JNK2 was under 100 nM each time.
`O=C(Cn1c(=O)ccc2cc(C(F)(F)F)c(F)cc21)Nc1scc(Br)c1-c1ncn[nH]1` [N-(4-bromo-3-(1H-1,2,4-triazol-5-yl)thiophen-2-yl)-2-(7-fluoro-2-oxo-6-(trifluoromethyl)quinolin-1(2H)-yl)acetamide]: the IC50 against JNK3, at JNK1 and against JNK2 was under 100 nM in each case.
For `O=C(Cn1c(=O)ccc2cc(C(F)(F)F)ccc21)Nc1scc(Cl)c1-c1ncn(CCCN2CCOCC2)n1` [N-(4-chloro-3-(1-(3-morpholinopropyl)-1H-1,2,4-triazol-3-yl)thiophen-2-yl)-2-(2-oxo-6-(trifluoromethyl)quinolin-1(2H)-yl)acetamide], the IC50 against JNK3, at JNK1 and against JNK2 was under 100 nM each time.
For `O=C(Cn1c(=O)ccc2cnccc21)Nc1scc(Br)c1-c1ncn[nH]1` [N-(4-bromo-3-(1H-1,2,4-triazol-5-yl)thiophen-2-yl)-2-(2-oxo-1,6-naphthyridin-1(2H)-yl)acetamide], the IC50 against JNK3, against JNK1 and at JNK2 was under 100 nM each time.
Regarding `Cn1cnc(-c2c(Cl)csc2NC(=O)Cn2c(=O)ccn3nc(C(F)(F)F)cc23)n1` [N-(4-chloro-3-(1-methyl-1H-1,2,4-triazol-3-yl)thiophen-2-yl)-2-(5-oxo-2-(trifluoromethyl)pyrazolo[1,5-a]pyrimidin-4(5H)-yl)acetamide], the IC50 against JNK3, at JNK1 and on JNK2 was under 100 nM in each case.
Turning to `N#Cc1csc(NC(=O)Cc2cccc3cnccc23)c1-c1ncn[nH]1` [N-(4-cyano-3-(1H-1,2,4-triazol-5-yl)thiophen-2-yl)-2-(isoquinolin-5-yl)acetamide], the IC50 against JNK3, against JNK1 and against JNK2 was under 100 nM in each case.
As to `CN(C)CCCn1cnc(-c2c(Cl)csc2NC(=O)Cn2c(=O)ccc3cc(C(F)(F)F)ccc32)n1` [N-(4-chloro-3-(1-(3-(dimethylamino)propyl)-1H-1,2,4-triazol-3-yl)thiophen-2-yl)-2-(2-oxo-6-(trifluoromethyl)quinolin-1(2H)-yl)acetamide], the IC50 at JNK3, against JNK1 and on JNK2 was under 100 nM in each case.
Regarding `O=C(CN1C(=O)CCc2cc(F)ccc21)Nc1scc(Br)c1-c1ncn[nH]1` [N-(4-bromo-3-(1H-1,2,4-triazol-5-yl)thiophen-2-yl)-2-(6-fluoro-2-oxo-3,4-dihydroquinolin-1(2H)-yl)acetamide], the IC50 at JNK3, against JNK1 and against JNK2 was under 100 nM throughout.
Regarding `N#Cc1csc(NC(=O)Cn2c(=O)ccc3cc(C(F)(F)F)ccc32)c1-c1cscn1` [N-(4-cyano-3-(thiazol-4-yl)thiophen-2-yl)-2-(2-oxo-6-(trifluoromethyl)quinolin-1(2H)-yl)acetamide], the IC50 against JNK3, against JNK1 and at JNK2 was under 100 nM each time.
With `Cc1csc(NC(=O)CN2C(=O)CCc3ccccc32)c1-c1ncn[nH]1` [N-(4-methyl-3-(1H-1,2,4-triazol-5-yl)thiophen-2-yl)-2-(2-oxo-3,4-dihydroquinolin-1(2H)-yl)acetamide], the 50% inhibitory concentration (IC50) was under 100 nM against JNK3, under 100 nM on JNK1 and under 10000 nM against JNK2.
As to `O=C(Cn1c(=O)ccc2cc(C(F)(F)F)ccc21)Nc1scc(Cl)c1-c1ncn[nH]1` [N-(4-chloro-3-(1H-1,2,4-triazol-5-yl)thiophen-2-yl)-2-(2-oxo-6-(trifluoromethyl)quinolin-1(2H)-yl)acetamide], the IC50 on JNK3, against JNK1 and at JNK2 was under 100 nM throughout.
For the compound `O=C(Cn1c(=O)ccc2cc(F)ccc21)Nc1scc(Br)c1-c1ncn[nH]1` [N-(4-bromo-3-(1H-1,2,4-triazol-5-yl)thiophen-2-yl)-2-(6-fluoro-2-oxoquinolin-1(2H)-yl)acetamide], the IC50 at JNK3, on JNK1 and on JNK2 was under 100 nM each time.
Regarding `O=C(CN1C(=O)CCc2cc(C(F)(F)F)ccc21)Nc1scc(Br)c1-c1ncn[nH]1` [N-(4-bromo-3-(1H-1,2,4-triazol-5-yl)thiophen-2-yl)-2-(2-oxo-6-(trifluoromethyl)-3,4-dihydroquinolin-1(2H)-yl)acetamide], the IC50 against JNK3, on JNK1 and against JNK2 was under 100 nM throughout.
On to `N#Cc1ccc2c(ccc(=O)n2CC(=O)Nc2scc(Br)c2-c2ncn[nH]2)c1` [N-(4-bromo-3-(1H-1,2,4-triazol-5-yl)thiophen-2-yl)-2-(6-cyano-2-oxoquinolin-1(2H)-yl)acetamide], for which the IC50 against JNK3, against JNK1 and at JNK2 was under 100 nM each time.
